The text below walks through data of patent US8933094B2, “Ethynyl compounds useful for treatment of CNS disorder” (Hoffmann-La Roche Inc., priority 2009, dated 2015).

This experiment deals with T1, human mGlu5a receptor (Homo sapiens, UniProt P41594).
T1 construct: expressed in transfected cells
Briefly: Intracellular Ca2+ mobilization assay (mGlu5 PAM). It is filed as cell-based. Conditions: for EC50: HEK-293 cells stably transfected with human mGlu5a, L-glutamate added at EC20 after 10-30 min pre-incubation with test compound, read-out: EC50 (nM) mGlu5PAM; for Emax: maximal response in % of the maximal stimulatory effect obtained with saturating concentrations of L-glutamate, read-out: Eff. (%). On the procedure:
A monoclonal HEK-293 cell line stably transfected with a cDNA encoding for the human mGlu5a receptor was generated; for the work with mGlu5 Positive Allosteric Modulators (PAMs), a cell line with low receptor expression levels and low constitutive receptor activity was selected to allow the differentiation of agonistic versus PAM activity. Cells were cultured according to standard protocols (Freshney, 2000) in Dulbecco's Modified Eagle Medium with high glucose supplemented with 1 mM glutamine, 10% (vol/vol) heat-inactivated bovine calf serum, Penicillin/Streptomycin, 50 μg/ml hygromycin and 15 μg/ml blasticidin (all cell culture reagents and antibiotics from Invitrogen, Basel, Switzerland).
About 24 hrs before an experiment, 5×10^4 cells/well were seeded in poly-D-lysine coated, black/clear-bottomed 96-well plates. The cells were loaded with 2.5 μM Fluo-4AM in loading buffer (1×HBSS, 20 mM HEPES) for 1 hr at 37° C. and washed five times with loading buffer. The cells were transferred into a Functional Drug Screening System 7000 (Hamamatsu, Paris, France), and 11 half logarithmic serial dilutions of test compound at 37° C. were added and the cells were incubated for 10-30 min. with on-line recording of fluorescence. Following this pre-incubation step, the agonist L-glutamate was added to the cells at a concentration corresponding to EC20 (typically around 80 μM) with on-line recording of fluorescence; in order to account for day-to-day variations in the responsiveness of cells, the EC20 of glutamate was determined immediately ahead of each experiment by recording of a full dose-response curve of glutamate.
Responses were measured as peak increase in fluorescence minus basal (i.e. fluorescence without addition of L-glutamate), normalized to the maximal stimulatory effect obtained with saturating concentrations of L-glutamate. Graphs were plotted with the % maximal stimulatory using XLfit, a curve fitting program that iteratively plots the data using Levenburg Marquardt algorithm. The single site competition analysis equation used was y=A+((B−A)/(1+((x/C)D))), where y is the % maximal stimulatory effect, A is the minimum y, B is the maximum y, C is the EC50, x is the log 10 of the concentration of the competing compound and D is the slope of the curve (the Hill Coefficient). From these curves the EC50 (concentration at which half maximal stimulation was achieved), the Hill coefficient as well as the maximal response in % of the maximal stimulatory effect obtained with saturating concentrations of L-glutamate were calculated.
A depression of the signal observed after addition of the EC20 concentration of L-glutamate was indicative of an inhibitory activity of the test compound.
On the technique in general: Calcium assays in cells follow changes in intracellular calcium, usually with a dye or a luminescent sensor.

T1 sequence (P41594 21-1180 isoform P41594-2 limits assumed): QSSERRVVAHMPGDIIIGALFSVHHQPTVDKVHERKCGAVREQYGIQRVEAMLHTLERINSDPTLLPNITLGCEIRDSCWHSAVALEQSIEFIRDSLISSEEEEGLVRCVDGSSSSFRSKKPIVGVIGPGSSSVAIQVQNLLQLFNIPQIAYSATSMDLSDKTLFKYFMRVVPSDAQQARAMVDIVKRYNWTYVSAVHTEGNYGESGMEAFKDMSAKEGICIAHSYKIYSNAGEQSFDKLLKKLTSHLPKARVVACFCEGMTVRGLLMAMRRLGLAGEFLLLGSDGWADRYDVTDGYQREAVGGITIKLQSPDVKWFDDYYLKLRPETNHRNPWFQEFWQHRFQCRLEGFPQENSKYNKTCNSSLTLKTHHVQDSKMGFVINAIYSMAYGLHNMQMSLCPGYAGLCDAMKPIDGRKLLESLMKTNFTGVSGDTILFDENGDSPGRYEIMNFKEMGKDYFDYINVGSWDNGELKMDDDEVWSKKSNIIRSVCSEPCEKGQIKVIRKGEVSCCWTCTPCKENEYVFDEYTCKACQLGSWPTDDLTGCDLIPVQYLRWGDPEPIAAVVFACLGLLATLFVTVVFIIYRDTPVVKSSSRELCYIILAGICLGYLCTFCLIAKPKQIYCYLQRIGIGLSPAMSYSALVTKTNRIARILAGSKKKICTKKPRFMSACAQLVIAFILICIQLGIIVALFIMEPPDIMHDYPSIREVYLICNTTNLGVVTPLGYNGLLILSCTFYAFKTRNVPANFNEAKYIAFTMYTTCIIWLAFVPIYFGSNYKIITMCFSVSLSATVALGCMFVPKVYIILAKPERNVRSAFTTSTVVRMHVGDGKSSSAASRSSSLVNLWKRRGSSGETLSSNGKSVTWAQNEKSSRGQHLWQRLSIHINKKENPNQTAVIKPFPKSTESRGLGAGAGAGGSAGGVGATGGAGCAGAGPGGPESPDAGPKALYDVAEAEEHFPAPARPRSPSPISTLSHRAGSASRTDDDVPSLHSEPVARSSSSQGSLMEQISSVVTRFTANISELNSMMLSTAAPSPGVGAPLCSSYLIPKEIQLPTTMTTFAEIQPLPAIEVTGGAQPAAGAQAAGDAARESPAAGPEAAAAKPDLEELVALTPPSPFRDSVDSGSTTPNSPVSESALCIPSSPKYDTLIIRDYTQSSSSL

Broadly, the EC50 is the concentration at which the effect is half-maximal. As for `Cc1cc2ncc(C#Cc3ccc(Cl)cc3)cn2n1` [Example 8, 6-(4-Chloro-phenylethynyl)-2-methyl-pyrazolo[1,5-a]pyrimidine], the EC50 stood at 148 nM and the Emax turned out to be 69%.
For `Cc1ccc(C#Cc2cnc3cc(C)nn3c2)cc1` [Example 7, 2-Methyl-6-p-tolylethynyl-pyrazolo[1,5-a]pyrimidine] the same measures were 132 nM and 73%.
The like results for `Cc1cc2ncc(C#Cc3ccccc3F)cn2n1` [Example 3, 6-(2-Fluoro-phenylethynyl)-2-methyl-pyrazolo[1,5-a]pyrimidine] were, in that order, 47 nM and 81%.
The like results for `CC(C)(C)c1cc2ncc(C#Cc3ccc(Cl)cc3)cn2n1` [Example 20, 2-tert-Butyl-6-(4-chloro-phenylethynyl)-pyrazolo[1,5-a]pyrimidine] were, in that order, 400 nM and 89%.
For the molecule `COc1ccc(C#Cc2cnc3cc(C(C)(C)C)nn3c2)cc1` [Example 15, 2-tert-Butyl-6-(4-methoxy-phenylethynyl)-pyrazolo[1,5-a]pyrimidine], the EC50 was 68 nM and the Emax worked out at 53%.
For `CC(C)(C)c1nc2ncc(C#Cc3cncc(Cl)c3)cn2n1` [Example 46, 2-tert-Butyl-6-(5-chloro-pyridin-3-ylethynyl)-[1,2,4]triazolo[1,5-a]pyrimidine], the EC50 is 47 nM and the Emax stood at 49%.
For `Cc1cc2ncc(C#Cc3ccccc3)cn2n1` [Example 2, 2-Methyl-6-phenylethynyl-pyrazolo[1,5-a]pyrimidine] the same measures were 49 nM and 99%.
The like results for `CC(C)(C)c1cc2ncc(C#Cc3ccc(F)cc3)cn2n1` [Example 12, 2-tert-Butyl-6-(4-fluoro-phenylethynyl)-pyrazolo[1,5-a]pyrimidine] were, in that order, 7 nM and 75%.
Consider `CC(C)(C)c1cc2ncc(C#Cc3ccc(Cl)nc3)cn2n1` [Example 21, 2-tert-Butyl-6-(6-chloro-pyridin-3-ylethynyl)-pyrazolo[1,5-a]pyrimidine], for which the EC50 is 183 nM and the Emax is 77%.
For `CC(C)(C)c1cc2ncc(C#Cc3cccc(N)c3)cn2n1` [Example 35, 3-(2-tert-Butyl-pyrazolo[1,5-a]pyrimidin-6-ylethynyl)-phenylamine] the same measures were 37 nM and 69%.
For `C(#Cc1cnc2nc(N3CCOCC3)nn2c1)c1ccccc1` [Example 47, 2-Morpholin-4-yl-6-phenylethynyl-[1,2,4]triazolo[1,5-a]pyrimidine] the same measures were 69 nM and 119%.
The like results for `CC(C)(C)c1cc2ncc(C#Cc3ccccc3N)cn2n1` [Example 36, 2-(2-tert-Butyl-pyrazolo[1,5-a]pyrimidin-6-ylethynyl)-phenylamine] were, in that order, 155 nM and 88%.
Regarding `CC(C)(C)c1cc2ncc(C#Cc3cncnc3)cn2n1` [Example 24, 2-tert-Butyl-6-pyrimidin-5-ylethynyl-pyrazolo[1,5-a]pyrimidine], the EC50 was determined as 181 nM and the Emax is 68%.
Regarding `CC(C)(C)c1cc2ncc(C#Cc3ccncc3)cn2n1` [Example 14, 2-tert-Butyl-6-pyridin-4-ylethynyl-pyrazolo[1,5-a]pyrimidine], the EC50 turned out to be 4 nM and the Emax amounted to 37%.
For `Cc1cccc(C#Cc2cnc3cc(C(C)(C)C)nn3c2)c1` [Example 16, 2-tert-Butyl-6-m-tolylethynyl-pyrazolo[1,5-a]pyrimidine] the same measures were 100 nM and 50%.
The like results for `CC(C)(C)c1cc2ncc(C#Cc3cc(F)ccc3F)cn2n1` [Example 37, 2-tert-Butyl-6-(2,5-difluoro-phenylethynyl)-pyrazolo[1,5-a]pyrimidine] were, in that order, 39 nM and 65%.
